Read-outs that look alike come from different tables or passages of the source.
Experiments:
Type in all cases: cell-based, human
XG7 myeloma cell line = test: Cell proliferation assay (tritiated thymidine incorporation), XG7; conditions: for IC50: Homo sapiens; for IC10: XG7, concentration yielding 10% inhibition of proliferation
Experimental: (§1) Myeloma cells were harvested in the exponential growth phase (at day 3 after culture passage when the cell concentration is around 5×10^5 cells/ml). Cells were washed twice, cultured for 3 hours in RPMI1640 and 10% FCS, washed twice. This makes it possible to remove cell-bound growth factors (in particular recombinant IL-6). Then cells are plated in 96-well flat-bottomed microplates at various concentrations depending on their doubling time: • 5×10^3 cells/well in 100 μl for the cell lines: XG-1, XG-7 • 10^4 cells/well in […] for the cell lines: XG-2, XG-4, XG-6, XG-11, PRMI8226, L363 • 2×10^4 cells/well in 100 μl for the cell lines: XG-3, XG-12, XG-13, XG-14, XG-19, XG-20
(§2) The culture medium used were: • PRMI1640, 10% FCS and 0.5 ng/ml of IL-6 for XG-1, XG-2, XG-3, XG-4, XG-6, XG-7, XG-11, XG-12, XG-13, XG-19, XG-20 cells • X-VIVO20 and 0.5 ng/ml IL-6 for XG-14 cells • PRMI1640 and 10% FCS for RPMI8226 and L363 cells
(§3) The diluted compounds, DMSO or control culture medium were added in 100 μl at the start of the culture. Three culture wells were done for one compound dilution and the experiments were done twice (finally six culture wells for one compound dilution).
(§4) Cells were cultured for 4 days. Eight hours before the end of the culture, 0.5 μCi of tritiated thymidine were added in 50 μl of RPMI1640 and 10% FCS. Cells were then extracted with a cell collector and the thymidine incorporation was determined using a beta cell counter.
(§5) For each experiment, the mean tritiated thymidine incorporations (mean values determined on three culture wells) were plotted against the logarithmic concentrations of the compound. The curves were fitted with exponential regression, which was determined using the concentrations defining the inhibition response (usually 3-4 concentrations).
(§6) The concentrations yielding 50% and 90% inhibition of the proliferation of myeloma cells were determined with these regression curves.
(§7) The concentration yielding 10% (IC10) or 50% (IC50) inhibition of the myeloma cell lines were determined and the data are listed in Table 2.
(§8) Compound A was tested in combination with melphalan or Velcade. Increasing concentration of compound A (0, 0.01, 0.03, 0.12, 0.37, 1.1, 3.1, 10, 30 μM) were applied on 4 myeloma cell lines alone or in combination with Velcade or melphalan at concentration yielding around 10% or 50% inhibition.

L363 myeloma cell line = test: Cell proliferation assay (tritiated thymidine incorporation), L363; conditions: for IC50: Homo sapiens; for IC10: L363, concentration yielding 10% inhibition of proliferation
Experimental: as §1, §2, §3, §4, §5, §6, §7, §8

XG3 myeloma cell line = test: Cell proliferation assay (tritiated thymidine incorporation), XG3; conditions: for IC50: Homo sapiens; for IC10: XG3, concentration yielding 10% inhibition of proliferation
Experimental: as §1, §2, §3, §4, §5, §6, §7, §8

XG12 myeloma cell line = test: Cell proliferation assay (tritiated thymidine incorporation), XG12; conditions: for IC50: Homo sapiens; for IC10: XG12, concentration yielding 10% inhibition of proliferation
Experimental: as §1, §2, §3, §4, §5, §6, §7, §8

With CC(C)C[C@H](NC(=O)[C@H](Cc1ccccc1)NC(=O)c1cnccn1)B(O)O [Velcade, bortezomib] the IC50 (XG7 myeloma cell line; XG7, proliferation, read-out: IC50) was 0.0035 µM, the “IC10” value (XG7 myeloma cell line) was 0.0014 µM and the IC50 (L363 myeloma cell line; L-363, L363, proliferation, read-out: IC50) was 0.0084 µM. The “IC10” value (L363 myeloma cell line) was 0.0049 µM, the IC50 (XG3 myeloma cell line; XG3, proliferation, read-out: IC50) was 0.0022 µM and the “IC10” value (XG3 myeloma cell line) was 0.0016 µM. For the same compound, the IC50 (XG12 myeloma cell line; XG12, proliferation, read-out: IC50) was 0.0039 µM and the “IC10” value (XG12 myeloma cell line) was 0.0016 µM.

In the case of N[C@@H](Cc1ccc(N(CCCl)CCCl)cc1)C(=O)O [Melphalan, melphalan], the IC50 (XG7 myeloma cell line) is reported as 1.18 µM, the “IC10” value (XG7 myeloma cell line) is reported as 0.409 µM and the IC50 (L363 myeloma cell line; L-363) is reported as 0.457 µM. The “IC10” value (L363 myeloma cell line) was 0.110 µM, the IC50 (XG3 myeloma cell line) was 1.68 µM and the “IC10” value (XG3 myeloma cell line) was 0.490 µM. For the same compound, the IC50 (XG12 myeloma cell line) was 1.23 µM and the “IC10” value (XG12 myeloma cell line) was 0.318 µM.

Reference: patent US20100069316A1, “TREATMENT FOR MULTIPLE MYELOMA” (Ares Trading S.A., priority 2006, published 2010)
